Data as given in PubChem BioAssay (NCI).
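Five compound concentrations were applied to cells in 96-well plates for 48 hours; endpoints were derived by simple linear interpolation of the resulting dose-response curve. TGI denotes the concentration required for complete inhibition of growth.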

What was measured:
Test in all cases: NCI tumour cell line growth inhibition, 48 h
K-562 leukemia = system: K-562 leukemia
UACC-257 melanoma = system: UACC-257 melanoma
HT29 colon = system: HT29 colon
LOX IMVI melanoma = system: LOX IMVI melanoma
HS 578T breast = system: HS 578T breast
HOP-62 NSCLC = system: HOP-62 NSCLC
SW-620 colon = system: SW-620 colon
SK-MEL-5 melanoma = system: SK-MEL-5 melanoma
NCI-H226 lung = system: NCI-H226 lung
OVCAR-4 ovarian = system: OVCAR-4 ovarian
T-47D breast = system: T-47D breast
NCI-H23 lung = system: NCI-H23 lung
MALME-3M melanoma = system: MALME-3M melanoma
SK-OV-3 ovarian = system: SK-OV-3 ovarian
U251 CNS = system: U251 CNS
NCI/ADR-RES ovarian = system: NCI/ADR-RES ovarian
SF-295 CNS = system: SF-295 CNS
OVCAR-5 ovarian = system: OVCAR-5 ovarian
MDA-N = system: MDA-N
BT-549 breast = system: BT-549 breast
CCRF-CEM leukemia = system: CCRF-CEM leukemia
IGROV1 ovarian = system: IGROV1 ovarian
OVCAR-3 ovarian = system: OVCAR-3 ovarian
786-0 renal = system: 786-0 renal
SR leukemia = system: SR leukemia
SNB-19 CNS = system: SNB-19 CNS
UO-31 renal = system: UO-31 renal
SF-539 CNS = system: SF-539 CNS
SN12C renal = system: SN12C renal
M14 melanoma = system: M14 melanoma
KM12 colon = system: KM12 colon
TK-10 renal = system: TK-10 renal
NCI-H460 lung = system: NCI-H460 lung
MCF7 breast = system: MCF7 breast
SK-MEL-28 melanoma = system: SK-MEL-28 melanoma
OVCAR-8 ovarian = system: OVCAR-8 ovarian
COLO 205 colon = system: COLO 205 colon
NCI-H522 lung = system: NCI-H522 lung
MDA-MB-231 breast = system: MDA-MB-231 breast
HOP-92 NSCLC = system: HOP-92 NSCLC
HCT-15 colon = system: HCT-15 colon
CAKI-1 renal = system: CAKI-1 renal
PC-3 prostate = system: PC-3 prostate
MDA-MB-435 = system: MDA-MB-435
MOLT-4 leukemia = system: MOLT-4 leukemia
HCC-2998 colon = system: HCC-2998 colon
UACC-62 melanoma = system: UACC-62 melanoma
A549 NSCLC = system: A549 NSCLC
SNB-75 CNS = system: SNB-75 CNS
HCT-116 colon = system: HCT-116 colon
RPMI-8226 leukemia = system: RPMI-8226 leukemia
HL-60(TB) leukemia = system: HL-60(TB) leukemia
DU-145 prostate = system: DU-145 prostate
RXF 393 renal = system: RXF 393 renal
ACHN renal = system: ACHN renal
SK-MEL-2 melanoma = system: SK-MEL-2 melanoma
A498 renal = system: A498 renal
EKVX NSCLC = system: EKVX NSCLC

SMILES: O=C(N/C(=C/c1ccc(Cl)cc1)c1nc2ccccc2c(=O)n1Nc1ccc([N+](=O)[O-])cc1[N+](=O)[O-])c1ccccc1
- TGI (K-562 leukemia): > 100 µM
- TGI (UACC-257 melanoma): > 100 µM
- TGI (HT29 colon): > 100 µM
- TGI (LOX IMVI melanoma): > 100 µM
- TGI (HS 578T breast): > 100 µM
- TGI (HOP-62 NSCLC): > 100 µM
- TGI (SW-620 colon): > 100 µM
- TGI (SK-MEL-5 melanoma): > 100 µM
- TGI (NCI-H226 lung): > 100 µM
- TGI (OVCAR-4 ovarian): > 100 µM
- TGI (T-47D breast): > 100 µM
- TGI (NCI-H23 lung): > 100 µM
- TGI (MALME-3M melanoma): > 100 µM
- TGI (SK-OV-3 ovarian): > 100 µM
- TGI (U251 CNS): > 100 µM
- TGI (NCI/ADR-RES ovarian): > 100 µM
- TGI (SF-295 CNS): > 100 µM
- TGI (OVCAR-5 ovarian): > 100 µM
- TGI (MDA-N): > 100 µM
- TGI (BT-549 breast): > 100 µM
- TGI (CCRF-CEM leukemia): > 100 µM
- TGI (IGROV1 ovarian): > 100 µM
- TGI (OVCAR-3 ovarian): > 100 µM
- TGI (786-0 renal): > 100 µM
- TGI (SR leukemia): > 100 µM
- TGI (SNB-19 CNS): > 100 µM
- TGI (UO-31 renal): > 100 µM
- TGI (SF-539 CNS): > 100 µM
- TGI (SN12C renal): > 100 µM
- TGI (M14 melanoma): > 100 µM
- TGI (KM12 colon): > 100 µM
- TGI (TK-10 renal): > 100 µM
- TGI (NCI-H460 lung): > 100 µM
- TGI (MCF7 breast): > 100 µM
- TGI (SK-MEL-28 melanoma): > 100 µM
- TGI (OVCAR-8 ovarian): > 100 µM
- TGI (COLO 205 colon): > 100 µM
- TGI (NCI-H522 lung): > 100 µM
- TGI (MDA-MB-231 breast): > 100 µM
- TGI (HOP-92 NSCLC): > 100 µM
- TGI (HCT-15 colon): > 100 µM
- TGI (CAKI-1 renal): > 100 µM
- TGI (PC-3 prostate): > 100 µM
- TGI (MDA-MB-435): > 100 µM
- TGI (MOLT-4 leukemia): > 100 µM
- TGI (HCC-2998 colon): > 100 µM
- TGI (UACC-62 melanoma): > 100 µM
- TGI (A549 NSCLC): > 100 µM
- TGI (SNB-75 CNS): > 100 µM
- TGI (HCT-116 colon): > 100 µM

SMILES: C[n+]1c(-c2ccc(/C=N\NC(=O)c3ccc(C(=O)N/N=C/c4ccc(-c5cn6ccsc6[n+]5C)cc4)cc3)cc2)cn2ccsc21
- TGI (RPMI-8226 leukemia): 55 µM
- TGI (K-562 leukemia): > 100 µM
- TGI (UACC-257 melanoma): 54.9 µM
- TGI (HT29 colon): 36 µM
- TGI (HS 578T breast): 54.7 µM
- TGI (HOP-62 NSCLC): 35.1 µM
- TGI (SW-620 colon): 40 µM
- TGI (SK-MEL-5 melanoma): 34 µM
- TGI (NCI-H226 lung): 44.1 µM
- TGI (OVCAR-4 ovarian): 57.8 µM
- TGI (NCI-H23 lung): 50.9 µM
- TGI (HL-60(TB) leukemia): 43.8 µM
- TGI (MALME-3M melanoma): 47.7 µM
- TGI (SK-OV-3 ovarian): 74.6 µM
- TGI (DU-145 prostate): 35 µM
- TGI (RXF 393 renal): 53.5 µM
- TGI (U251 CNS): 48.9 µM
- TGI (NCI/ADR-RES ovarian): 41.1 µM
- TGI (ACHN renal): 33.3 µM
- TGI (OVCAR-5 ovarian): 36.3 µM
- TGI (MDA-N): 78.3 µM
- TGI (BT-549 breast): 42.7 µM
- TGI (CCRF-CEM leukemia): > 100 µM
- TGI (SK-MEL-2 melanoma): 75.6 µM
- TGI (IGROV1 ovarian): 40.7 µM
- TGI (OVCAR-3 ovarian): 28.5 µM
- TGI (786-0 renal): 36.8 µM
- TGI (SR leukemia): 85.6 µM
- TGI (SNB-19 CNS): 51.9 µM
- TGI (UO-31 renal): 32.3 µM
- TGI (SF-539 CNS): 56.1 µM
- TGI (SN12C renal): 43.8 µM
- TGI (M14 melanoma): 44.9 µM
- TGI (KM12 colon): 58.2 µM
- TGI (TK-10 renal): 40.3 µM
- TGI (A498 renal): 33 µM
- TGI (NCI-H460 lung): 42.1 µM
- TGI (MCF7 breast): 47.9 µM
- TGI (OVCAR-8 ovarian): 40.8 µM
- TGI (COLO 205 colon): 54.3 µM
- TGI (NCI-H522 lung): 60.6 µM
- TGI (MDA-MB-231 breast): 42.1 µM
- TGI (EKVX NSCLC): 34.3 µM
- TGI (HOP-92 NSCLC): 36.4 µM
- TGI (HCT-15 colon): 37.8 µM
- TGI (CAKI-1 renal): 41 µM
- TGI (PC-3 prostate): 41.1 µM
- TGI (MDA-MB-435): 37.7 µM
- TGI (MOLT-4 leukemia): 54.1 µM
- TGI (HCC-2998 colon): 58.4 µM
- TGI (UACC-62 melanoma): 47.1 µM
- TGI (A549 NSCLC): 57.8 µM
- TGI (SNB-75 CNS): 46.7 µM
